The numbers were not newly measured in patent publication US20030073580A1, “Composition for treating cells and method for qualitatively and quantitatively customizing the formulation thereof” (priority 2001, published 2003), which cites them from elsewhere.

SMILES strings stand for the structures. Like-named read-outs stand apart in the source and are kept apart here.

The subject of this data set is plant leaves.
Where [1] appears, read: Sulfate 0.1 Mg SO4/L (0.0334 milligrams elemental S).
[2] abbreviates: Sulfate 1.0 Mg SO4/L (0.3340 milligrams elemental S).
Where [3] appears, read: Sulfate 10.0 Mg SO4/L (3.3400 milligrams elemental S).
Setting [4] is: Sulfate 50.0 Mg SO4/L (16.7000 milligrams elemental S).
The mark [5] stands for this setting: Sulfate 200.0 Mg SO4/L (66.8000 milligrams elemental S).

Take `O=S(=O)(O)O` [Sulfate]: under setting [1], the “Inorganic S” value is reported as 0.003 Percentage of Dry Weight, the “Leaf Dry Wt” value is reported as 1.1 g/plant, the “Nitrate N” value was 1.39 Percentage of Dry Weight and the “Organic N” value is 2.23 Percentage of Dry Weight. Under setting [1], the “Organic S” value was 0.11 Percentage of Dry Weight and the “Protein N” value is 0.96 Percentage of Dry Weight. Besides, under setting [2], the “Inorganic S” value is listed as 0.003 Percentage of Dry Weight, the “Leaf Dry Wt” value was 2.4 g/plant, the “Nitrate N” value was 1.37 Percentage of Dry Weight and the “Organic N” value is listed as 2.21 Percentage of Dry Weight. In addition, under setting [2], the “Organic S” value was 0.12 Percentage of Dry Weight and the “Protein N” value is on record as 1.28 Percentage of Dry Weight. Further, under setting [3], the “Inorganic S” value is listed as 0.009 Percentage of Dry Weight, the “Leaf Dry Wt” value was 3.4 g/plant, the “Nitrate N” value was 0.06 Percentage of Dry Weight and the “Organic N” value is 1.19 Percentage of Dry Weight. Under setting [3], the “Organic S” value is on record as 0.17 Percentage of Dry Weight and the “Protein N” value is 2.56 Percentage of Dry Weight. Besides, under setting [4], the “Inorganic S” value is given as 0.100 Percentage of Dry Weight, the “Leaf Dry Wt” value is recorded as 4.7 g/plant, the “Nitrate N” value was 0.00 Percentage of Dry Weight and the “Organic N” value is 0.51 Percentage of Dry Weight. Moreover, under setting [4], the “Organic S” value is 0.26 Percentage of Dry Weight and the “Protein N” value was 3.25 Percentage of Dry Weight. Also, under setting [5], the “Inorganic S” value was 0.360 Percentage of Dry Weight, the “Leaf Dry Wt” value was 4.7 g/plant, the “Nitrate N” value is on record as 0.10 Percentage of Dry Weight and the “Organic N” value is listed as 0.45 Percentage of Dry Weight. Moreover, under setting [5], the “Organic S” value was 0.25 Percentage of Dry Weight and the “Protein N” value is 3.20 Percentage of Dry Weight.
Regarding `S1SSSSSSS1` [sulfur], under “available sulfur approximately 16.7 mg per liter”, the “free nitrate nitrogen in plant leaves” value is “zero”. Besides, the “optimal concentration of available sulfur in a fertilizer mixture” value (concentration at which free nitrate drops to zero and organic sulfur and protein nitrogen reach their maximum) is recorded as “approximately 16.7 mg per liter”.
